The text below walks through data of patent publication US20250122182A1 (Isosterix, Inc., priority 2023, published 2025).

The subject of one assay is ZR-75-1 cells. As to the kind of experiment: Cell Titer-Glo Luminescent Cell Viability Assay in ZR-75-1 Cells. The assay is classed as cell-based. The conditions noted are these: Homo sapiens, compounds replenished every 48 hours till day 10, CellTiter-Glo. As to the method: The CellTiter-Glo® Luminescent Cell Viability Assay is a homogeneous method employed to determine the number of metabolically active cells in culture. On day 0, ZR-75-1 cells were detached completely from the culture flasks using 0.25% trypsin-EDTA (Catalog #25200056, Gibco). ZR-75-1 cells were seeded into white opaque-96 well culture plate (Catalog #6005680, Perkin Elmer) at a density of 1500 cells per well in 200 μL of RPMI 1640 medium (Catalog #A1049101, Gibco) supplemented with 10% Fetal Bovine Serum (Catalog #16000044, Gibco) and 1× Penicillin-Streptomycin (Catalog #15140122, Gibco). The plates were incubated at 37° C. with 5% CO2 for 24 hours. On day 1, the spent media was removed from each well of the plate and 180 μL of fresh RPMI 1640 complete media was added. Test compounds were diluted in 100% DMSO followed by complete media. 20 μL of media containing compounds were added to each well so that the final DMSO concentration was 0.5%. The test compounds were tested for 10 points DRC (10 μM top concentration, 3-fold dilution). The assay plates were incubated at 37° C. with 5% CO2 for 48 hours. The test compounds and media were replenished every 48 hours till day 10.
On day 10, the CellTiter-Glo® 2.0 reagent (Catalog #G9242, Promega) was thawed and equilibrated to room temperature. Assay plates were removed from the incubator and equilibrated to room temperature for about 30 minutes. 100 μL of spent media was removed from each well and then 50 μL of CellTiter-Glo® 2.0 Reagent was added. The plates were incubated on an orbital shaker at room temperature for 10 minutes to induce cell lysis and stabilize luminescent signal. The luminescent signal was recorded using Perkin Elmer Envision multi-mode plate reader. Percent cytotoxicity induced by test compounds was determined relative to vehicle control. EC50 value for test compounds was calculated using GraphPad Prism software (four parameter-variable slope equation).

The target in assay [1] is Recombinant KAT6A/MOZ (488-778) protein (Homo sapiens (Human), UniProt Q92794). Briefly: KAT6A AlphaLISA Inhibition Screening Assay. The assay is classed as biochemical. As to conditions: for inhibition at 1 µM: read-out: Average Kat6A % inhibition @ 1 μM; for inhibition at 10 µM: read-out: Average Kat6A % inhibition @ 10 μM. In outline: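 AlphaLISA read-out with anti-acetyl-lysine acceptor and streptavidin donor beads, % inhibition relative to vehicle. Reaction: biotinylated histone H3 1-21 (200 nM) and acetyl-CoA (400 nM) with KAT6A 488-778 (25 nM), 120 min at room temperature, pH 8.0, 330 nM TSA, after 60 or 10 min enzyme–compound pre-incubation; 10-point 3-fold series from 10 μM.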
Recombinant KAT6A/MOZ (488-778) protein, sequence (Q92794 488-778): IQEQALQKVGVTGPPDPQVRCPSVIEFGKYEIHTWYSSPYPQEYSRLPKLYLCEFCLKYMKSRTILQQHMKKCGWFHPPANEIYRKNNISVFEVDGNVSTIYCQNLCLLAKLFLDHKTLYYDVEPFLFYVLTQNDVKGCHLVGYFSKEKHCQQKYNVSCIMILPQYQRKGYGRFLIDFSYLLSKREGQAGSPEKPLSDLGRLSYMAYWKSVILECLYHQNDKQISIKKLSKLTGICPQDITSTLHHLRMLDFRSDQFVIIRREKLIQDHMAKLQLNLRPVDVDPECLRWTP

The EC50 is the midpoint of the concentration-response curve. Read a high EC50 as lower potency in that assay. What is called inhibition is the drop in the measured response relative to a control, in per cent. Turning to `C=C(F)C(=O)NCc1cnn(Cc2cc(OC)c3c(NS(=O)(=O)c4cc(CC)ccc4OCC(=O)OC)noc3c2)c1` [Syn. Ex. 54, methyl 2-(4-ethyl-2-(N-(6-((4-((2-fluoroacrylamido)methyl)-1H-pyrazol-1-yl)methyl)-4-methoxybenzo[d]isoxazol-3-yl)sulfamoyl)phenoxy)acetate], the EC50 in the assay with ZR-75-1 cells is under 100 nM. Also, in assay [1] (1 μM test compound), the inhibition at 1 µM was determined as 97%. Besides, the inhibition at 10 µM in assay [1] (10 μM test compound) came out at 97%.

Compound `C=C(F)C(=O)NCc1ccc(Oc2cc(OC)c3c(NS(=O)(=O)c4cc(CC)ccc4OC)noc3c2)nc1` [Syn. Ex. 51, N-((6-((3-((5-ethyl-2-methoxyphenyl)sulfonamido)-4-methoxybenzo[d]isoxazol-6-yl)oxy)pyridin-3-yl)methyl)-2-fluoroacrylamide] displayed a concentration for a half-maximal effect (EC50) with ZR-75-1 cells of 100 to 1000 nM. In assay [1] (1 μM test compound), the inhibition at 1 µM turned out to be 89%. In addition, the inhibition at 10 µM in assay [1] (10 μM test compound) is 100%.

`CCc1ccc(OC)c(S(=O)(=O)Nc2noc3cc(Cn4cc(CNC(=O)C(C)F)cn4)cc(OC)c23)c1` (stereo not drawn) [Syn. Ex. 47, N-((1-((3-((5-ethyl-2-methoxyphenyl)sulfonamido)-4-methoxybenzo[d]isoxazol-6-yl)methyl)-1H-pyrazol-4-yl)methyl)-2-fluoropropanamide]: the EC50 with ZR-75-1 cells was 100 to 1000 nM. For the same compound, the inhibition at 1 µM in assay [1] (1 μM test compound) amounted to 98%. Also, the inhibition at 10 µM in assay [1] (10 μM test compound) was determined as 96%.

`C#CC(=O)NCc1cnn(Cc2cc(OC(F)F)c3c(NS(=O)(=O)c4cc(CC)ccc4OC)noc3c2)c1` [Syn. Ex. 53, N-((1-((4-(difluoromethoxy)-3-((5-ethyl-2-methoxyphenyl)sulfonamido)benzo[d]isoxazol-6-yl)methyl)-1H-pyrazol-4-yl)methyl)propiolamide] displayed an EC50 with ZR-75-1 cells of 1000 to 10000 nM. Moreover, in assay [1] (1 μM test compound), the inhibition at 1 µM is 98%. Further, the inhibition at 10 µM in assay [1] (10 μM test compound) was 100%.

As to `CC#CC(=O)NCc1cnn(Cc2cc(OC)c3c(NS(=O)(=O)c4ccc(OC)cc4OC)noc3c2)c1` [Syn. Ex. 46, N-((1-((3-((2,4-dimethoxyphenyl)sulfonamido)-4-methoxybenzo[d]isoxazol-6-yl)methyl)-1H-pyrazol-4-yl)methyl)but-2-ynamide], the EC50 with ZR-75-1 cells was in the range of 100 to 1000 nM. Also, the inhibition at 1 µM in assay [1] (1 μM test compound) came to 98%. Moreover, the inhibition at 10 µM in assay [1] (10 μM test compound) is 100%.

Consider `C#CC(=O)NCc1cnn(Cc2cc(OC)c3c(NS(=O)(=O)c4cc(C)c(C)cc4OC)noc3c2)c1` [Syn. Ex. 19, N-((1-((4-methoxy-3-((2-methoxy-4,5-dimethylphenyl)sulfonamido)benzo[d]isoxazol-6-yl)methyl)-1H-pyrazol-4-yl)methyl)propiolamide], for which the EC50 in the assay with ZR-75-1 cells is under 100 nM. Further, the inhibition at 1 µM in assay [1] (1 μM test compound) worked out at 100%. Further, the inhibition at 10 µM in assay [1] (10 μM test compound) was 98%.

In the case of `CCc1ccc(OCCNC(C)=O)c(S(=O)(=O)Nc2noc3cc(Cn4cc(CNC(=O)OC)cn4)cc(OC)c23)c1` [Syn. Ex. 81, methyl ((1-((3-((2-(2-acetamidoethoxy)-5-ethylphenyl)sulfonamido)-4-methoxybenzo[d]isoxazol-6-yl)methyl)-1H-pyrazol-4-yl)methyl)carbamate], the inhibition at 1 µM in assay [1] (1 μM test compound) turned out to be 91%. Also, the inhibition at 10 µM in assay [1] (10 μM test compound) came out at 99%.

As for `COC(=O)NCc1cnn(Cc2cc3onc(NS(=O)(=O)c4cc5c(cc4OC)CCC5)c3cc2OC)c1` [Syn. Ex. 147, methyl ((1-((5-methoxy-3-((6-methoxy-2,3-dihydro-1H-indene)-5-sulfonamido)benzo[d]isoxazol-6-yl)methyl)-1H-pyrazol-4-yl)methyl)carbamate], the “Average Kat6A % inhibition @ 1 μM” value in assay [1] (1 μM test compound) is recorded as 101%. Moreover, the “Average Kat6A % inhibition @ 10 μM” value in assay [1] (10 μM test compound) is 101%.

For `CCc1ccc(OC)c(S(=O)(=O)Nc2noc3cc(Cn4cc(CNC(=O)OCCNC(C)=O)cn4)cc(OC)c23)c1` [Syn. Ex. 48, 2-acetamidoethyl ((1-((3-((5-ethyl-2-methoxyphenyl)sulfonamido)-4-methoxybenzo[d]isoxazol-6-yl)methyl)-1H-pyrazol-4-yl)methyl)carbamate], in assay [1] (1 μM test compound), the inhibition at 1 µM stood at 96%. Further, the inhibition at 10 µM in assay [1] (10 μM test compound) was 100%.

On to `CCc1ccc(OC)c(S(=O)(=O)Nc2noc3cc(Cn4cc(CNC(=O)OCCNC(=O)OC(C)(C)C)cn4)cc(OC)c23)c1` [Syn. Ex. 31, 2-((tert-butoxycarbonyl)amino)ethyl ((1-((3-((5-ethyl-2-methoxyphenyl)sulfonamido)-4-methoxybenzo[d]isoxazol-6-yl)methyl)-1H-pyrazol-4-yl)methyl)carbamate], for which the inhibition at 1 µM in assay [1] (1 μM test compound) worked out at 86%. The inhibition at 10 µM in assay [1] (10 μM test compound) turned out to be 99%.

As to `C#CC(=O)N1CCc2cnn(Cc3cc(OC)c4c(NS(=O)(=O)c5cc(CC)ccc5OC)noc4c3)c2CC1` [Syn. Ex. 9, 5-ethyl-2-methoxy-N-(4-methoxy-6-((6-propioloyl-5,6,7,8-tetrahydropyrazolo[3,4-d]azepin-1(4H)-yl)methyl)benzo[d]isoxazol-3-yl)benzenesulfonamide], in assay [1] (1 μM test compound), the inhibition at 1 µM is 61%. For the same compound, the inhibition at 10 µM in assay [1] (10 μM test compound) was determined as 100%.

For the compound `C=C(F)C(=O)NCc1cnn(Cc2cc(OC)c3c(NS(=O)(=O)c4cc(C)ccc4OC)noc3c2)c1` [Syn. Ex. 89, 2-fluoro-N-((1-((4-methoxy-3-((2-methoxy-5-methylphenyl)sulfonamido)benzo[d]isoxazol-6-yl)methyl)-1H-pyrazol-4-yl)methyl)acrylamide], in assay [1] (1 μM test compound), the inhibition at 1 µM stood at 100%. Also, in assay [1] (10 μM test compound), the inhibition at 10 µM came to 100%.

Consider `COc1ccc(C(C)C)cc1S(=O)(=O)Nc1noc2cc(Cn3cc(CNS(C)(=O)=O)cn3)cc(OC)c12` [Syn. Ex. 38, 5-isopropyl-2-methoxy-N-(4-methoxy-6-((4-(methylsulfonamidomethyl)-1H-pyrazol-1-yl)methyl)benzo[d]isoxazol-3-yl)benzenesulfonamide], for which, in assay [1] (1 μM test compound), the inhibition at 1 µM was found to be 100%. The inhibition at 10 µM in assay [1] (10 μM test compound) came out at 99%.

For `COC(=O)NCc1cnn(Cc2cc3onc(NS(=O)(=O)c4ccccc4OC)c3cc2OC)c1` [Syn. Ex. 145, methyl ((1-((5-methoxy-3-((2-methoxyphenyl)sulfonamido)benzo[d]isoxazol-6-yl)methyl)-1H-pyrazol-4-yl)methyl)carbamate], the inhibition at 1 µM in assay [1] (1 μM test compound) turned out to be 108%. The inhibition at 10 µM in assay [1] (10 μM test compound) was 108%.

On to `CCc1ccc(OCc2ccc(F)cc2)c(S(=O)(=O)Nc2noc3cc(Cn4cc(CNC(=O)OC)cn4)cc(OC)c23)c1` [Syn. Ex. 122, methyl ((1-((3-((5-ethyl-2-((4-fluorobenzyl)oxy)phenyl)sulfonamido)-4-methoxybenzo[d]isoxazol-6-yl)methyl)-1H-pyrazol-4-yl)methyl)carbamate], for which the inhibition at 1 µM in assay [1] (1 μM test compound) came out at 100%. For the same compound, the inhibition at 10 µM in assay [1] (10 μM test compound) turned out to be 100%.

For the compound `CCOc1cc2c(NS(=O)(=O)c3cc(CC)ccc3OC)noc2cc1Cn1cc(CNC(=O)OC)cn1` [Syn. Ex. 142, methyl ((1-((5-ethoxy-3-((5-ethyl-2-methoxyphenyl)sulfonamido)benzo[d]isoxazol-6-yl)methyl)-1H-pyrazol-4-yl)methyl)carbamate], in assay [1] (1 μM test compound), the inhibition at 1 µM came out at 110%. Further, the inhibition at 10 µM in assay [1] (10 μM test compound) amounted to 99%.

Turning to `C=C(F)C(=O)NCc1cnn(Cc2cc(OC)c3c(NS(=O)(=O)c4cc(CC)ccc4OCc4ccnc(OC)c4)noc3c2)c1` [Syn. Ex. 94, N-((1-((3-((5-ethyl-2-((2-methoxypyridin-4-yl)methoxy)phenyl)sulfonamido)-4-methoxybenzo[d]isoxazol-6-yl)methyl)-1H-pyrazol-4-yl)methyl)-2-fluoroacrylamide], in assay [1] (1 μM test compound), the inhibition at 1 µM turned out to be 100%. In addition, the inhibition at 10 µM in assay [1] (10 μM test compound) came to 100%.
